Assay results taken from US12662479B2 (Foghorn Therapeutics Inc., priority 2020, dated 2026).

Legend:
[1] = target: T1, HiBit-BRG1 fusion protein (Homo sapiens, UniProt P51532); assay: HiBiT-BRG1 cell-based degradation assay (Nano-Glo HiBiT Lytic Detection, 24 h); conditions: HeLa cells expressing HiBit-BRG1 and LgBit; for DC50: read-out: BRG1 HiBit Degradation IC50; for Dmax: HeLa, top dose 30 μM, read-out: BRG1 HiBit Degradation Maximum measured
T1 construct: expressed in transfected cells
Outline: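 Degradation is scaled from DMSO-treated cells (0%) to cells given 2 μM of a known BRM/BRG1 degrader (100%). HeLa cells stably carrying HiBiT-BRG1 plus LgBiT (5000/well) were lysed with Nano-Glo HiBiT detection reagent, shaken 10 min at RT, and luminescence read.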

HiBit-BRM fusion protein = target: T2, HiBit-BRM fusion protein (Homo sapiens, UniProt P51531); assay: HiBiT-BRM cell-based degradation assay (Nano-Glo HiBiT Lytic Detection, 24 h); conditions: HeLa cells expressing HiBiT-BRM; for DC50: read-out: BRM HiBit Degradation IC50; for BRM HiBit Degradation Maximum measured: top dose 30 μM
T2 construct: expressed in transfected cells
Outline: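 Percent BRM loss was derived from HiBiT luminescence relative to DMSO-treated cells and cells given 2 μM of a known BRM/BRG1 degrader. Treatment lasted 24 h in HiBiT-BRM HeLa cells, with a top final concentration of 30 μM.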

T1 sequence (P51532 whole entry, the tested form may be a part): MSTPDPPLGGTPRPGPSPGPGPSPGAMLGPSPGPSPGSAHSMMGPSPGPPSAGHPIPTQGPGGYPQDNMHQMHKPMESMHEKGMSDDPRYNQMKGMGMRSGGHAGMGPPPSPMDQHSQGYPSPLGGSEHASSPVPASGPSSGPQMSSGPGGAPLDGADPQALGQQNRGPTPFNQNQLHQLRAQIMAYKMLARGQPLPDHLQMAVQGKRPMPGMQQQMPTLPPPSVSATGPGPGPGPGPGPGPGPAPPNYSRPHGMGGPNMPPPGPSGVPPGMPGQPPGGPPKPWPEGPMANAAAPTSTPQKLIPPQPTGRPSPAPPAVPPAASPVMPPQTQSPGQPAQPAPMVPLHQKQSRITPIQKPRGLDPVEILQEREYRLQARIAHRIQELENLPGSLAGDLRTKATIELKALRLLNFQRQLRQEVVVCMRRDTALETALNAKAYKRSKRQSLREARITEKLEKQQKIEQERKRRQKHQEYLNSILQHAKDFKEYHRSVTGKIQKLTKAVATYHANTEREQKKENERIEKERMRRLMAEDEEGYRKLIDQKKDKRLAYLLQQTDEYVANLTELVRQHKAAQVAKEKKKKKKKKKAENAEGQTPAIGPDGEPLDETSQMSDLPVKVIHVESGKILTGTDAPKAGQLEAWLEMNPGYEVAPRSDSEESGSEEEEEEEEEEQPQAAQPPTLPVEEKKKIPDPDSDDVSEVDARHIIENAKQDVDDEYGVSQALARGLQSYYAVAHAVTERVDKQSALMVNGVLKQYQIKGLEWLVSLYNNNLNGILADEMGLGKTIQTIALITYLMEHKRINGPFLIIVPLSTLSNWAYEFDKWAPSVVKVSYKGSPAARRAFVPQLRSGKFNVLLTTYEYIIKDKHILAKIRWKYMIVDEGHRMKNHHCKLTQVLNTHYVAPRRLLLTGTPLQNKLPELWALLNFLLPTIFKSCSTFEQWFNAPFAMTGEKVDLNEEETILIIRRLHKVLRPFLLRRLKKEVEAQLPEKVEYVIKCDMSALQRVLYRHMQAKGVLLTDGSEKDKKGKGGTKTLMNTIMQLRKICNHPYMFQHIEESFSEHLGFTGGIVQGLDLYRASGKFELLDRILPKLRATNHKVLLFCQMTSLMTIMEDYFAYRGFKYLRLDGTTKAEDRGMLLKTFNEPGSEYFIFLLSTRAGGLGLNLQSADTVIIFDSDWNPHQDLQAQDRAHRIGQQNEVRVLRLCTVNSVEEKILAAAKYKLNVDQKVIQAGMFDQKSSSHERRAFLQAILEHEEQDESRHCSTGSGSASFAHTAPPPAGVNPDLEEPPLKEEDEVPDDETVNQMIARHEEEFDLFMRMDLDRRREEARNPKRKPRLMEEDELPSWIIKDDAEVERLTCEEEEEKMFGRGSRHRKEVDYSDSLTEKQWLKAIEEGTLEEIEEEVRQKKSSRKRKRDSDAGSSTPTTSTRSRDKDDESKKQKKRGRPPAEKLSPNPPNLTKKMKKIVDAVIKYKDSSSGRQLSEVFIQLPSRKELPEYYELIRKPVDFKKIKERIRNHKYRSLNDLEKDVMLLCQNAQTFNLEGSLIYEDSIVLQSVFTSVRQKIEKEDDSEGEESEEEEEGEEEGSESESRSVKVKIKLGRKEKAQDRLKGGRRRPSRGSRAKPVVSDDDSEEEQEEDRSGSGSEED
T2 sequence (P51531 whole entry, the tested form may be a part): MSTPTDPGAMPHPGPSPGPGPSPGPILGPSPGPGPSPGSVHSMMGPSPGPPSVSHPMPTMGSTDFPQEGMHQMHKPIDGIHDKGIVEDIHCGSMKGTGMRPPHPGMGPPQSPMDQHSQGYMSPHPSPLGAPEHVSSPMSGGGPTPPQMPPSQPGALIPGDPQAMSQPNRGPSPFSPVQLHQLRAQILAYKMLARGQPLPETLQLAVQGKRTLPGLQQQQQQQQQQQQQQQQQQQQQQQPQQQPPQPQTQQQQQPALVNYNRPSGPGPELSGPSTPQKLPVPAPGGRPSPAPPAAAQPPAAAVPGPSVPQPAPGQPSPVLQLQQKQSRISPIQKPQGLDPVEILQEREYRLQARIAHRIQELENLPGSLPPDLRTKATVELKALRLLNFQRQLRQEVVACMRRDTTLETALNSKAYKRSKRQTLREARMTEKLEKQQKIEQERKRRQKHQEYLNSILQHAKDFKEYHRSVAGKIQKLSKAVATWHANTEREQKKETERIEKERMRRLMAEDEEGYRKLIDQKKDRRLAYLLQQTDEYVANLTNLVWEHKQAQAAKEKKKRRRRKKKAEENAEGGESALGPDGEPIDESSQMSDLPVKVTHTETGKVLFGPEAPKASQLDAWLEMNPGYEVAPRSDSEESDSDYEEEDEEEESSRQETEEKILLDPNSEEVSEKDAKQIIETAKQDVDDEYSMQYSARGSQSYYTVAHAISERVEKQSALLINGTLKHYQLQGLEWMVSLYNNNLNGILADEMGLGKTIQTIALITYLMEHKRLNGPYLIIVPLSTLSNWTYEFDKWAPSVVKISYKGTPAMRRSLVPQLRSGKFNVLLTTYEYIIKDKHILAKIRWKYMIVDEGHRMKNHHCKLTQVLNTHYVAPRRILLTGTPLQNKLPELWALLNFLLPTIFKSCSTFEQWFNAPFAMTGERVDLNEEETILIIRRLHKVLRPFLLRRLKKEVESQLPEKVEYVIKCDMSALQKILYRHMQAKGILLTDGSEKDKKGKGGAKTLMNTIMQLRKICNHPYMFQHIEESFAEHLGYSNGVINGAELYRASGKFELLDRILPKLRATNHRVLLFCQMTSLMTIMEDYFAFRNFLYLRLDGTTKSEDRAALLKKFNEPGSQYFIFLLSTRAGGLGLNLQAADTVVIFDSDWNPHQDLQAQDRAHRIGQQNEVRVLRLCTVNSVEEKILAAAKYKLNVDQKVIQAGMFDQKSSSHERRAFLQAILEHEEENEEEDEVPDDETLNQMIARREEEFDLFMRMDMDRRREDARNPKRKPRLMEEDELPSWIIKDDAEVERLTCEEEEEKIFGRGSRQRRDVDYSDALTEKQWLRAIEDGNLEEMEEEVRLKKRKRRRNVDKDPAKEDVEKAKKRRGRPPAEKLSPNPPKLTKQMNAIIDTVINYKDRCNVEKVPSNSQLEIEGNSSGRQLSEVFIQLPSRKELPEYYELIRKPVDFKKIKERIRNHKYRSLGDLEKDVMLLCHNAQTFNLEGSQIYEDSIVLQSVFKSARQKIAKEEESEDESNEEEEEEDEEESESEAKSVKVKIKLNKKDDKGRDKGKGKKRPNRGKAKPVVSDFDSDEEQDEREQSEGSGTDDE

Row | SMILES | DC50 [1] [µM] | Dmax [1] [%] | DC50 (HiBit-BRM fusion protein) [µM] | BRM HiBit Degradation Maximum measured (HiBit-BRM fusion protein)
1 | CS(=O)(=O)n1ccc(C(=O)NCC(=O)Nc2nc(-c3cccc(-c4ccnc(C5(C(=O)NCCCCCCNc6ccc7c(c6)C(=O)N(C6CCC(=O)NC6=O)C7=O)CC5)c4)c3)cs2)c1 (centres unmarked) [Compound 104, N-[2-[[4-[3-[2-[1-[6-[[2-(2,6-dioxo-3-piperidyl)-1,3-dioxo-isoindolin-5-yl]amino]hexylcarbamoyl]cyclopropyl]-4-pyridyl]phenyl]thiazol-2-yl]amino]-2-oxo-ethyl]-1-methylsulfonyl-pyrrole-3-carboxamide] | < 0.1 | > 75 | < 0.1 | A (‘A’ = Maximum degradation >75%)
2 | CS(=O)(=O)n1ccc(C(=O)N[C@@H](CCOCCCC(=O)N2CCC3(CC2)CC(Oc2ccc4c(c2)C(=O)N(C2CCC(=O)NC2=O)C4=O)C3)C(=O)Nc2nc(-c3ccccc3)cs2)c1 (stereo partly drawn) [Compound 262, (2S)-4-[4-(2-[[2-(2,6-dioxopiperidin-3-yl)-1,3-dioxoisoindol-5-yl]oxy]-7-azaspiro[3.5]nonan-7-yl)-4-oxobutoxy]-2-[(1-methanesulfonylpyrrol-3-yl)formamido]-N-(4-phenyl-1,3-thiazol-2-yl)butanamide] | > 10 | < 50 | > 10 | C (‘C’ = Maximum degradation <50%)
3 | CS(=O)(=O)n1ccc(C(=O)N[C@@H](CCOCCCC(=O)NCCCCCCNc2ccc3c(c2)C(=O)N(C2CCC(=O)NC2=O)C3=O)C(=O)Nc2nc(-c3ccccc3)cs2)c1 (stereo partly drawn) [Compound 283, (2S)-4-[3-[(6-[[2-(2,6-dioxopiperidin-3-yl)-1,3-dioxoisoindol-5-yl]amino]hexyl)carbamoyl]propoxy]-2-[(1-methanesulfonylpyrrol-3-yl)formamido]-N-(4-phenyl-1,3-thiazol-2-yl)butanamide] | > 10 | < 50 | > 10 | C (‘C’ = Maximum degradation <50%)
4 | CS(=O)(=O)n1ccc(C(=O)N[C@@H](COCc2ccc(CNC(=O)CCCCCCCCCCNc3cccc4c3C(=O)N(C3CCC(=O)NC3=O)C4=O)cc2)C(=O)Nc2nc(-c3ccccc3)cs2)c1 (stereo partly drawn) [Compound 180, 11-[[2-(2,6-dioxopiperidin-3-yl)-1,3-dioxoisoindol-4-yl]amino]-N-[(4-[[(2S)-2-[(1-methanesulfonylpyrrol-3-yl)formamido]-2-[(4-phenyl-1,3-thiazol-2-yl)carbamoyl]ethoxy]methyl]phenyl)methyl]undecanamide] | 0.1 to 1 | 50 to 75 | 0.1 to 1 | B (‘B’ = Maximum degradation ≥50% and ≤75%)
5 | CS(=O)(=O)n1ccc(C(=O)NCC(=O)Nc2nc(-c3cccc(-c4ccnc(C5(C(=O)N6CCC7(CC6)CC(Oc6ccc8c(c6)C(=O)N(C6CCC(=O)NC6=O)C8=O)C7)CC5)c4)c3)cs2)c1 (centres unmarked) [Compound 151, N-[4-(3-[2-[1-(2-[[2-(2,6-dioxopiperidin-3-yl)-1,3-dioxoisoindol-5-yl]oxy]-7-azaspiro[3.5]nonane-7-carbonyl)cyclopropyl]pyridin-4-yl]phenyl)-1,3-thiazol-2-yl]-2-[(1-methanesulfonylpyrrol-3-yl)formamido]acetamide] | < 0.1 | 50 to 75 | > 10 | C (‘C’ = Maximum degradation <50%)
6 | Cc1ncsc1-c1ccc(CNC(=O)[C@@H]2C[C@@H](O)CN2C(=O)[C@@H](NC(=O)COCCOCCNC(=O)c2ccc(COC[C@H](NC(=O)c3ccn(S(C)(=O)=O)c3)C(=O)Nc3nc(-c4ccccc4)cs3)cc2)C(C)(C)C)cc1 [Compound 188, (2S,4R)-4-hydroxy-1-[(2S)-2-[2-(2-[2-[(4-[[(2S)-2-[(1-methanesulfonylpyrrol-3-yl)formamido]-2-[(4-phenyl-1,3-thiazol-2-yl)carbamoyl]ethoxy]methyl]phenyl)formamido]ethoxy]ethoxy)acetamido]-3,3-dimethylbutanoyl]-N-[[4-(4-methyl-1,3-thiazol-5-yl)phenyl]methyl]pyrrolidine-2-carboxamide] | 1 to 10 | 50 to 75 | > 10 | C (‘C’ = Maximum degradation <50%)
7 | CN(CC(=O)NCCCCCNc1ccc2c(c1)C(=O)N(C1CCC(=O)NC1=O)C2=O)c1cc(-c2cccc(-c3csc(NC(=O)CNC(=O)c4ccn(S(C)(=O)=O)c4)n3)c2)ccn1 (centres unmarked) [Compound 60] | > 10 | < 50 | > 10 | C (‘C’ = Maximum degradation <50%)
8 | Cc1ncsc1-c1ccc(CNC(=O)[C@@H]2C[C@@H](O)CN2C(=O)[C@@H](NC(=O)COCCOCC(=O)NCCOc2cc(-c3cccc(-c4csc(NC(=O)CNC(=O)c5ccn(S(C)(=O)=O)c5)n4)c3)ccn2)C(C)(C)C)cc1 [Compound 71, N-(2-((4-(3-(2-(((S)-13-((2S,4R)-4-hydroxy-2-((4-(4-methylthiazol-5-yl)benzyl)carbamoyl)pyrrolidine-1-carbonyl)-14,14-dimethyl-4,11-dioxo-6,9-dioxa-3,12-diazapentadecyl)oxy)pyridin-4-yl)phenyl)thiazol-2-yl)amino)-2-oxoethyl)-1-(methylsulfonyl)-1H-pyrrole-3-carboxamide] | > 10 | < 50 | > 10 | C (‘C’ = Maximum degradation <50%)
9 | CS(=O)(=O)n1ccc(C(=O)N[C@@H](CCOCCCC(=O)N2CCN(CCOc3ccc4c(c3)C(=O)N(C3CCC(=O)NC3=O)C4=O)CC2)C(=O)Nc2nc(-c3ccccc3)cs2)c1 (stereo partly drawn) [Compound 219, (2S)-4-[4-[4-(2-[[2-(2,6-dioxopiperidin-3-yl)-1,3-dioxoisoindol-5-yl]oxy]ethyl)piperazin-1-yl]-4-oxobutoxy]-2-[(1-methanesulfonylpyrrol-3-yl)formamido]-N-(4-phenyl-1,3-thiazol-2-yl)butanamide] | > 10 | < 50 | > 10 | C (‘C’ = Maximum degradation <50%)
10 | CN(CCCCNC(=O)C1(c2cc(-c3cccc(-c4csc(NC(=O)CNC(=O)c5ccn(S(C)(=O)=O)c5)n4)c3)ccn2)CC1)CCCNc1cccc2c1C(=O)N(C1CCC(=O)NC1=O)C2=O (centres unmarked) [Compound 106, N-(2-((4-(3-(2-(1-((4-((3-((2-(2,6-dioxopiperidin-3-yl)-1,3-dioxoisoindolin-4-yl)amino)propyl)(methyl)amino)butyl)-carbamoyl)cyclopropyl)pyridin-4-yl)phenyl)thiazol-2-yl)amino)-2-oxoethyl)-1-(methylsulfonyl)-1H-pyrrole-3-carboxamide] | > 10 | < 50 | > 10 | C (‘C’ = Maximum degradation <50%)
11 | CS(=O)(=O)n1ccc(C(=O)N[C@@H](COCc2ccc(C(=O)N3CC(CCOc4cccc5c4C(=O)N(C4CCC(=O)NC4=O)C5=O)C3)cc2)C(=O)Nc2nc(-c3ccccc3)cs2)c1 (stereo partly drawn) [Compound 238, (2S)-3-([4-[3-(2-[[2-(2,6-dioxopiperidin-3-yl)-1,3-dioxoisoindol-4-yl]oxy]ethyl)azetidine-1-carbonyl]phenyl]methoxy)-2-[(1-methanesulfonylpyrrol-3-yl)formamido]-N-(4-phenyl-1,3-thiazol-2-yl)propanamide] | > 10 | < 50 | > 10 | C (‘C’ = Maximum degradation <50%)
